{"source": "patent US8362051B2", "about": "“Mold-resistant wallboard” (Rohm and Haas Company, priority 2007, dated 2013)", "assay_type_in_all_cases": "cell-based", "key": {"mold [1]": {"tested_on": "mold", "assay": "TAPPI T-487 test on surface-treated paper", "set-up": "key to TAPPI T-487 rating Week 1 / TAPPI T-487 rating Week 2 / TAPPI T-487 rating Week 3: 100% mold coverage; 1: 90% mold coverage; 2: 80% mold coverage; 3: 70% mold coverage; 4: 60% mold coverage; 50% mold coverage; 6: 40% mold coverage; 7: 30% mold coverage; 8: 20% mold coverage; 9: 10% mold coverage; 10: no mold growth", "conditions": "surface treatment; for TAPPI T-487 rating Week 1 / TAPPI T-487 rating Week 2 / TAPPI T-487 rating Week 3: average of three sheets", "experimental": "The papers of this example were prepared via surface treatment. The values in Table 3 below represent the average concentration of active biocide in the paper and the average […]-487 test rating based on three paper sheets."}, "mold [2]": {"tested_on": "mold", "assay": "ASTM 3273 fungal growth test on paper sheets, biocide added to pulp slurry", "set-up": "key to ASTM 3273 rating Week 1: 0: 100% mold coverage; 1: 90%; 2: 80%; 3: 70%; 4: 60%; 5: 50%; 6: 40%; 7: 30%; 8: 20%; 9: 10%; 10: no mold growth coverage; 8: 20% mold coverage; 9: 10% mold coverage; 10: no mold growth; key to ASTM 3273 rating Week 2 / ASTM 3273 rating Week 3 / ASTM 3273 rating Week 4: 100% mold coverage; 1: 90% mold coverage; 2: 80% mold coverage; 3: 70% mold coverage; 4: 60% mold coverage; 50% mold coverage; 6: 40% mold coverage; 7: 30% mold coverage; 8: 20% mold coverage; 9: 10% mold coverage; 10: no mold growth", "conditions": "average of three sheets", "experimental": "(§1) The biocides can be evaluated in the following examples by adding to a 0.4 wt % pulp slurry in water (100% recycle) typically used for gypsum wallboard facing paper. The slurry is filtered through a screen to drain the water from the stock and the resulting paper mat is blotted, couched, and dried to form a paper sheet with a basis weight of approximately 40 lb/1000 ft2. Three sheets per condition are prepared. High Performance Liquid Chromatography (HPLC) is used to determine the amount of biocide present in each sheet. The paper sheets are evaluated for fungal growth via ASTM 3273, currently the industry standard for mold-resistant wallboard, as well as the standard TAPPI T-487 fungal efficacy test.\n(§2) The values in Tables 1 and 2 below represent data from samples made substantially according to the preceding protocol. The average concentration of active biocide in the paper and the average test rating based on three paper sheets are shown. Based on tables 1 and 2, approximately 4-4.5 times more DIMTS active was needed in the paper sheet than OIT before no mold growth was observed throughout the entire testing period.\n(§3) For ASTM 3273, a 4-week test, the following rating scale applies: • 0—100% mold coverage • 1—90% mold coverage • 2—80% mold coverage • 3—70% mold coverage • 4—60% mold coverage • 5—50% mold coverage • 6—40% mold coverage • 7—30% mold coverage • 8—20% mold coverage • 9—10% mold coverage • 10—no mold growth For TAPPI T-487, a 3-week test, the following rating scale applies: • 0—no mold growth • 1—25% mold coverage • 2—50% mold coverage • 3—75% mold coverage • 4—100% mold coverage"}, "mold [3]": {"tested_on": "mold", "assay": "TAPPI T-487 fungal efficacy test on paper sheets, biocide added to pulp slurry", "set-up": "key: coverage; 8: 20% mold coverage; 9: 10% mold coverage; 10: no mold growth", "conditions": "average of three sheets", "experimental": "as §1, §2, §3"}}, "data": [{"molecule": "CCCCNC(=O)OCC#CI", "note": "[IPBC, 3-iodo-2-propynyl-butylcarbamate]", "values": [{"measurement": "TAPPI T-487 rating Week 1", "setting": "mold [1]; 70 ppm in paper", "result": 0}, {"measurement": "TAPPI T-487 rating Week 2", "setting": "mold [1]; 70 ppm in paper", "result": 0}, {"measurement": "TAPPI T-487 rating Week 3", "setting": "mold [1]; 70 ppm in paper", "result": 0}, {"measurement": "TAPPI T-487 rating Week 1", "setting": "mold [1]; 688 ppm in paper", "result": 0}, {"measurement": "TAPPI T-487 rating Week 2", "setting": "mold [1]; 688 ppm in paper", "result": 0}, {"measurement": "TAPPI T-487 rating Week 3", "setting": "mold [1]; 688 ppm in paper", "result": 0}, {"measurement": "TAPPI T-487 rating Week 1", "setting": "mold [1]; 6768 ppm in paper", "result": 0}, {"measurement": "TAPPI T-487 rating Week 2", "setting": "mold [1]; 6768 ppm in paper", "result": 0}, {"measurement": "TAPPI T-487 rating Week 3", "setting": "mold [1]; 6768 ppm in paper", "result": 0}, {"measurement": "effectiveness at controlling mold growth versus comparators", "setting": "mold [1]; based on Table 3", "result": "more effective at controlling mold growth at lower dosages than DIMTS, ZPT, and TBZ"}]}, {"molecule": "c1ccc2[nH]c(-c3cscn3)nc2c1", "note": "[TBZ, Thiabendazole]", "values": [{"measurement": "TAPPI T-487 rating Week 1", "setting": "mold [1]; 31 ppm in paper", "result": "4 (100% mold coverage)"}, {"measurement": "TAPPI T-487 rating Week 2", "setting": "mold [1]; 31 ppm in paper", "result": "4 (100% mold coverage)"}, {"measurement": "TAPPI T-487 rating Week 3", "setting": "mold [1]; 31 ppm in paper", "result": "4 (100% mold coverage)"}, {"measurement": "TAPPI T-487 rating Week 1", "setting": "mold [1]; 229 ppm in paper", "result": "2 (50% mold coverage)"}, {"measurement": "TAPPI T-487 rating Week 2", "setting": "mold [1]; 229 ppm in paper", "result": "4 (100% mold coverage)"}, {"measurement": "TAPPI T-487 rating Week 3", "setting": "mold [1]; 229 ppm in paper", "result": "4 (100% mold coverage)"}, {"measurement": "TAPPI T-487 rating Week 1", "setting": "mold [1]; 4107 ppm in paper", "result": 0}, {"measurement": "TAPPI T-487 rating Week 2", "setting": "mold [1]; 4107 ppm in paper", "result": 0}, {"measurement": "TAPPI T-487 rating Week 3", "setting": "mold [1]; 4107 ppm in paper", "result": 0}]}, {"molecule": "CCCCCCCCn1sccc1=O", "note": "[OIT, octylisothiazolinone]", "values": [{"measurement": "ASTM 3273 rating Week 1", "setting": "mold [2]; 113 ppm in paper sheet", "result": 10}, {"measurement": "ASTM 3273 rating Week 2", "setting": "mold [2]; 113 ppm in paper sheet", "result": 10}, {"measurement": "ASTM 3273 rating Week 3", "setting": "mold [2]; 113 ppm in paper sheet", "result": 10}, {"measurement": "ASTM 3273 rating Week 4", "setting": "mold [2]; 113 ppm in paper sheet", "result": 10}, {"measurement": "ASTM 3273 rating Week 1", "setting": "mold [2]; 174 ppm in paper sheet", "result": 10}, {"measurement": "ASTM 3273 rating Week 2", "setting": "mold [2]; 174 ppm in paper sheet", "result": 10}, {"measurement": "ASTM 3273 rating Week 3", "setting": "mold [2]; 174 ppm in paper sheet", "result": 10}, {"measurement": "ASTM 3273 rating Week 4", "setting": "mold [2]; 174 ppm in paper sheet", "result": 10}, {"measurement": "ASTM 3273 rating Week 1", "setting": "mold [2]; 283 ppm in paper sheet", "result": 10}, {"measurement": "ASTM 3273 rating Week 2", "setting": "mold [2]; 283 ppm in paper sheet", "result": 10}, {"measurement": "ASTM 3273 rating Week 3", "setting": "mold [2]; 283 ppm in paper sheet", "result": 10}, {"measurement": "ASTM 3273 rating Week 4", "setting": "mold [2]; 283 ppm in paper sheet", "result": 10}, {"measurement": "TAPPI T-487 rating Week 1", "setting": "mold [3]; 181 ppm in paper sheet", "result": 0}, {"measurement": "TAPPI T-487 rating Week 2", "setting": "mold [3]; 181 ppm in paper sheet", "result": 0}, {"measurement": "TAPPI T-487 rating Week 3", "setting": "mold [3]; 181 ppm in paper sheet", "result": 0}, {"measurement": "TAPPI T-487 rating Week 1", "setting": "mold [3]; 309 ppm in paper sheet", "result": 0}, {"measurement": "TAPPI T-487 rating Week 2", "setting": "mold [3]; 309 ppm in paper sheet", "result": 0}, {"measurement": "TAPPI T-487 rating Week 3", "setting": "mold [3]; 309 ppm in paper sheet", "result": 0}, {"measurement": "TAPPI T-487 rating Week 1", "setting": "mold [3]; 492 ppm in paper sheet", "result": 0}, {"measurement": "TAPPI T-487 rating Week 2", "setting": "mold [3]; 492 ppm in paper sheet", "result": 0}, {"measurement": "TAPPI T-487 rating Week 3", "setting": "mold [3]; 492 ppm in paper sheet", "result": 0}]}, {"molecule": "zinc pyrithione [ZPT]", "values": [{"measurement": "TAPPI T-487 rating Week 1", "setting": "mold [1]; 60 ppm in paper", "result": "4 (100% mold coverage)"}, {"measurement": "TAPPI T-487 rating Week 2", "setting": "mold [1]; 60 ppm in paper", "result": "4 (100% mold coverage)"}, {"measurement": "TAPPI T-487 rating Week 3", "setting": "mold [1]; 60 ppm in paper", "result": "4 (100% mold coverage)"}, {"measurement": "TAPPI T-487 rating Week 1", "setting": "mold [1]; 486 ppm in paper", "result": "1 (25% mold coverage)"}, {"measurement": "TAPPI T-487 rating Week 2", "setting": "mold [1]; 486 ppm in paper", "result": "4 (100% mold coverage)"}, {"measurement": "TAPPI T-487 rating Week 3", "setting": "mold [1]; 486 ppm in paper", "result": "4 (100% mold coverage)"}, {"measurement": "TAPPI T-487 rating Week 1", "setting": "mold [1]; 5408 ppm in paper", "result": 0}, {"measurement": "TAPPI T-487 rating Week 2", "setting": "mold [1]; 5408 ppm in paper", "result": 0}, {"measurement": "TAPPI T-487 rating Week 3", "setting": "mold [1]; 5408 ppm in paper", "result": 0}]}]}
